Experimental data taken from patent US20250222045A1, “BIFIDOBACTERIUM LONGUM SUBSP. INFANTIS, MICROBIAL AGENT AND USE THEREOF” (GUANGZHOU JIYAN COSMETICS TECHNOLOGY CO., LTD., priority 2024, published 2025).

Tests used:
p16 gene = test: UVA-irradiated fibroblasts, special dosing: p16 PCR; type: cell-based; details: 10 mg/mL
Experimental: (§1) Cell inoculation: After resuscitation of cells, when a plating rate reached about 60%, the cells were inoculated in 6-well plates, and incubated overnight in the CO2 incubator (37° C., 5% CO2).
(§2) Dosing: When the plating rate of the cells in the 6-well plates reached about 50%˜60%, UVA irradiation of 30 J/cm^2 was performed on groups with UVA irradiation, and after the irradiation was finished, dosing was performed for the groups respectively, with each group in triplicate. […]
(§3) Detection of gene expression: After the incubation was finished, PBS cleaning was performed twice with 1 mL/well, each well was added with 1 mL of RNAiso Plus, to pipet and lyse the cells, after which samples were collected. RNA was extracted and subjected to reverse transcription to cDNA to undergo fluorescence quantitative PCR detection, and result was calculated by the […] method.
(§4) Statistical analysis of results: GraphPad Prism Program software was applied for plotting, and results were expressed as Mean±SD. Comparison between the groups was statistically analyzed using t-test. […]

NF-κB gene = test: UVA-irradiated fibroblasts, special dosing: NF-κB PCR; type: cell-based; details: Filtrate 0.1%, Lysate 0.5%, Filtrate + lysate 0.3125%, Pro-xylane 10 mg/mL
Experimental: as §1, §2, §3, §4

MMP-1 = test: UVA-irradiated fibroblasts, special dosing (UVA continuous irradiation): MMP1 ELISA; type: cell-based; details: Filtrate 1%, Lysate 0.5%, Filtrate + lysate 0.3125%, Pro-xylane 10 mg/mL, Edelweiss 0.625%
Experimental: as §1
Dosing: When the plating rate of the cells in the 6-well plates reached about 50%˜60%, UVA irradiation of 30 J/cm^2 was performed on groups with UVA irradiation, and after the irradiation was finished, dosing was performed for the groups respectively, with each group in triplicate. The blank control group and the negative control group were added with 2 mL of the culture solution per well, the positive control group was added with 2 mL of the TGF-β1-containing culture solution per well, and the sample group was added with 2 mL of the test sample-containing culture solution at a corresponding concentration per well. After the dosing was completed, the 6-well plates were cultured in the CO2 incubator (37° C., 5% CO2) […] for 24 h. The above operations were repeated for 3 times. […]
as §4

p21 gene = test: UVA-irradiated fibroblasts, special dosing: p21 PCR; type: cell-based; details: 10 mg/mL
Experimental: as §1, §2, §3, §4

PGE2 = test: Keratinocyte-based inflammatory factor test (UVB), PGE2 ELISA; type: cell-based; details: keratinocytes, dosed 24 h, UVB 300 mJ/cm^2, 24 h, BC 165.31, NC 492.42, dexamethasone 0.01%, Filtrate 0.3125%, Lysate 1%, Filtrate + lysate 0.0781%, Centella asiatica 0.625 mg/mL
Experimental: (§5) Cell inoculation: After resuscitation of cells, when a plating rate reached about 60%, the cells were inoculated in 6-well plates, and incubated overnight in a CO2 incubator (37° C., 5% CO2).
(§6) Dosing: According to test groups in TABLE 19, when the plating rate of the cells in the 6-well plates reached about 30%˜50%, dosing was performed for the groups respectively, with each group in triplicate. The blank control group and the negative control group were added with 2 mL of a culture solution per well, the positive control group was added with 2 mL of a dexamethasone-containing culture solution per well, and the sample group was added with 2 mL of a test sample-containing culture solution at corresponding concentration per well. After the dosing was completed, the 6-well plates were cultured in the CO2 incubator (37° C., 5% CO2) for 24 h.
UVB irradiation: after the cells are cleaned in PBS, according to the test groups, remaining groups other than the blank control group were all subjected to UVB irradiation, with an irradiation dosage of 300 mJ/cm^2. […]
(§7) Statistical analysis of results: GraphPad Prism was applied for plotting, and results were expressed as Mean±SD. Comparison between the groups was statistically analyzed using t-test. […]

IL-1β = test: Macrophage-based inflammatory factor test (LPS), IL-1β ELISA; type: cell-based; details: macrophages, dosed 2 h, then LPS 22 h, BC 2.83, NC 76.40, dexamethasone 0.01%, Filtrate 0.5%, CLR bifida ferment lysate 1%
Experimental: (§8) <1> Formulation of working solution of positive control group (dexamethason): 2 μL of 10% mother liquor was sucked and dissolved in 2 mL of the culture solution to formulate 0.01% dexamethasone.
(§9) <2> Formulation of 1 μg/mL LPS-containing working solution: 2 mg/mL LPS stock solution was diluted to 1 μg/mL with the test-substance working solution remaining, negative control working solution and positive control working solution, respectively, after the dosing.
(§10) <1> Cell inoculation: the cells were inoculated in 6-well plates at an inoculation density of 2.2×10^5 per well, 2 mL of a cell suspension was added to each well, the inoculated cell culture plates continued to be cultured in the incubator for 24 h (5% CO2, 37° C.).
(§11) <2> Original cell culture solution in the wells was sucked out and discarded. The sample group was added with 1.8 mL of the test substance-containing culture solution at a corresponding concentration per well; the negative control group was added with 1.8 mL of a solvent control culture solution per well; the positive control group was added with 1.8 mL of a positive control culture solution per well; and the blank control group was added with 1.8 mL of a normal culture solution per well.
(§12) <3> After the dosing was completed, the 6-well plates were cultured in a cell incubator (5% CO2, 37° C.) for 2 h. […]

IL-6 = test: Macrophage-based inflammatory factor test (LPS), IL-6 ELISA; type: cell-based; details: macrophages, dosed 2 h, then LPS 22 h, BC 0.50, NC 2224.08, dexamethasone 0.01%, Filtrate 0.5%, CLR bifida ferment lysate 1%
Experimental: as §8, §9, §10, §11, §12

Keratinocyte = test: Cell scratch test, keratinocyte cell mobility; type: cell-based; details: Filtrate 0.3125%, Lysate 0.5%, Filtrate + lysate 0.0781%, Madecassoside 0.625 mg/mL, B5 1.25 mg/mL
Source text: Cell migration capability is an important capability of repairing after tissue damage. After the tissue damage, the body will initiate repair of a damaged part, including enhancement of longitudinal cell proliferation capability and lateral crawling and migration of cells in surrounding parts of the damage to the damaged part. Cells cover the damaged part by crawling and migration.
as §5
as §6, with “9,” for “19,”, “70%˜80%,” for “30%˜50%,”, “was” for “and the negative control group were”, “an EGF-containing” for “a dexamethasone-containing”, “continued to be” for “were”, “h. […]” for “h.”
Statistical analysis of results: GraphPad Prism was applied for plotting, and results were expressed as Mean±sD. Comparison between the groups was statistically analyzed using t-test. […]

Claudin-1 gene = test: Keratinocyte gene expression PCR: Claudin-1; type: cell-based, human; details: keratinocytes (HaCaT), 24 h, 2^−ΔΔCT, BC=1.00; PC VE 0.05%, Filtrate 0.3125%, Lysate 0.5%, Filtrate + lysate 0.0781%, Madecassoside 0.625 mg/mL, CLR lactic acid bacteria 0.5%
Experimental: Cell inoculation: After resuscitation of the cells, when the plating rate reached about 60%, the cells were inoculated in the 6-well plates, and incubated overnight in the CO2 incubator (37° C., 5% CO2).
Dosing: According to test groups in TABLE 11 to TABLE 17, when the plating rate of the cells in the 6-well plates reached about 40%˜60%, dosing was performed for the groups respectively, with each group in triplicate. The blank control group was added with 2 mL of the culture solution per well, the positive control group was added with 2 mL of a VE-containing culture solution per well, and the sample group was added with 2 mL of the test sample-containing culture solution at a corresponding concentration per well. After the dosing was completed, the 6-well plates were cultured in the CO2 incubator (37° C., 5% CO2) for 24 h. […]
Detection of gene expression: RNA was extracted and subjected to reverse transcription to cDNA to undergo fluorescence quantitative PCR detection, and result was calculated by a 2^−ΔΔCT method.
as §7

[1] = tested on: 3D epidermal skin model (EpiKutis®); test: SLS-stimulated 3D epidermal skin model (EpiKutis), tissue morphology H&E; type: cell-based; details: 0.1% SLS 30 min, then 24 h, filtrate 5%, lysate 5%, combination 5%, madecassoside 0.625 mg/mL, PC WY14643, FIG. 19
Source text: Tissue morphology: Tissue morphology is microscopic physiological structure analysis of tissues after HE staining. Through the tissue morphology of the model, changes in the skin barrier under different treatment conditions can be seen, for example, after SLS damage, the skin barrier becomes loose, thickness of a living cell layer decreases, and such damage can be ameliorated after treatment with active substances.
1) Formulation of 0.1% SLS working solution: 0.006 g of SLS was weighed and dissolved in 6 mL of a PBS solution, filtered by 0.22 μm, and formulated into the 0.1% SLS working solution for later use.
2) Formulation of working solution of positive control group (50 μM WY14643): 10 μL of 30 mM WY14643 mother liquor was sucked and dissolved in 6 mL of the culture solution to be formulated into 50 μM WY14643. […]
The models for detection of tissue morphology were fixed using 4% paraformaldehyde. After 24 h of fixation, H&E staining detection was performed, photographs were taken under a microscope and observed, and pictures were collected and analyzed.
as §7

Compound: CC(O)C[C@@H]1OC[C@@H](O)[C@H](O)[C@H]1O (some centres unmarked) [Pro-xylane]
- p16 Down-regulation Rate (vs NC) (p16 gene): 35.37%
- p16 gene expression, Mean (p16 gene): 1.06
- NF-κB gene expression, Inhibition Rate (vs NC) (NF-κB gene): 65.13%
- NF-κB gene expression, Mean (NF-κB gene; fibroblasts, UVA 30 J/cm^2 then dosing 24 h, repeated 3 times, BC 1.00, NC 1.52, PC TGFβ1 100 ng/mL): 0.53
- MMP1 Down-regulation Rate (vs NC) (MMP-1): 17.94%
- MMP1 Mean Concentration (MMP-1; fibroblasts, UVA 30 J/cm^2 then dosing 24 h, repeated 3 times, ELISA, BC 359379.29, NC 1075513.35, PC TGFβ1 100 ng/mL): 882584.62 pg/mL
- p21 gene expression, Mean (p21 gene): 1.88

Compound: C[C@@H]1C[C@H]2[C@@H]3CCC4=CC(=O)C=C[C@]4(C)[C@@]3(F)[C@@H](O)C[C@]2(C)[C@@]1(O)C(=O)CO [dexamethasone]
- PGE2 Mean Concentration (PGE2): 159.23 pg/mL
- IL-1β Mean Concentration (IL-1β): 8.51 pg/mL
- IL-6 Mean Concentration (IL-6): 193.04 pg/mL

Compound: Madecassoside
- Relative Mobility Mean (Keratinocyte; keratinocytes, dosed 24 h, 24 h after scratching, BC=1.00, PC EGF 1 ng/mL): 1.02
- Relative mobility, Increase Rate (Keratinocyte; vs BC): 2.00%
- Claudin-1 gene expression, Mean (Claudin-1 gene): 0.96
- Tissue morphology (H&E) compared with the NC group [1]: the phenomenon of living cell damage is obviously ameliorated
